In ChEMBL document CHEMBL1140165, “Rotationally constrained 2,4-diamino-5,6-disubstituted pyrimidines: a new class of histamine H4 receptor antagonists with improved druglikeness and in vivo efficacy in pain and inflammation models” (J Med Chem, 2008):
The source made the active and inactive calls. The calls are words filed in the database; no cut-off is given here.

Experiments:
[1] = target: T1, Histamine H4 receptor (Homo sapiens, UniProt Q9H3N8); conditions: HEK293
[2] = target: Histamine H4 receptor (Rattus norvegicus) (UniProt Q91ZY1); assay: (§1) Antagonist activity at rat histamine H4 receptor expressed in HEK293 cells assessed as inhibition of histamine-induced intracellular calcium elevation by FLIPR assay; assay type: functional, cell-based
Sequence of Histamine H4 receptor (Rattus norvegicus) (Q91ZY1 whole entry): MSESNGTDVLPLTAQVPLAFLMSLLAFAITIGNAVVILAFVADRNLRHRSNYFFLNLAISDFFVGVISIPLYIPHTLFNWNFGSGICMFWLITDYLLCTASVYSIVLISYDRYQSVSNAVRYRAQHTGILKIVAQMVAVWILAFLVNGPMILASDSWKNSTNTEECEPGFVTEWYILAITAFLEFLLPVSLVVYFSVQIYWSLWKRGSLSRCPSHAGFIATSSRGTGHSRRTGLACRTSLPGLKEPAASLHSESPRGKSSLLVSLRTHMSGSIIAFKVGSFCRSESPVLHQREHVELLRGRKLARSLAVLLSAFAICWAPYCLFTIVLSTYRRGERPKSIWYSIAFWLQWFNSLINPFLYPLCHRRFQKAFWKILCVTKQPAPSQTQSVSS

[3] = target: T2, Histamine H4 receptor (Rattus norvegicus, UniProt Q91ZY1); assay: as §1; assay type: functional, cell-based
T2 sequence (Q91ZY1 whole entry): as above

[4] = Terminal volume of distribution in rat at 10 mg/kg, iv; assay type: ADME, organism-based; parameters: dose 10 mg/kg, route intravenous; conditions: in vivo, read-out: Vbeta
[5] = target: Cytochrome P450 3A4 (Homo sapiens, UniProt P08684); assay: Inhibition of CYP3A4 upto 10 uM; assay type: ADME
Sequence of Cytochrome P450 3A4 (P08684 whole entry): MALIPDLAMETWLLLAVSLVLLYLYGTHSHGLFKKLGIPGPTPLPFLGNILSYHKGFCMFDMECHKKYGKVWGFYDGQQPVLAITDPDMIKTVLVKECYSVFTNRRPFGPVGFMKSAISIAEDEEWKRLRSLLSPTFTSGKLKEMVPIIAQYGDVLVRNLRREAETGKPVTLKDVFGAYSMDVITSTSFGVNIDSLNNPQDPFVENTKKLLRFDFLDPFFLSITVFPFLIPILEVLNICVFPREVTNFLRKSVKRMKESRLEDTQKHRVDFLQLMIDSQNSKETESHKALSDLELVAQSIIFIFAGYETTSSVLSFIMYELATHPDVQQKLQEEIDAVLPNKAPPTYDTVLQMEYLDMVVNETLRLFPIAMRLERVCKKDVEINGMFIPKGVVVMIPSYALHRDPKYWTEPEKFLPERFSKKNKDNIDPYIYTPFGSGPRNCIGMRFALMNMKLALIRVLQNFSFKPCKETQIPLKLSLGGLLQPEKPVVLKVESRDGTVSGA

[6] = Protein binding in human; assay type: ADME, organism-based; conditions: in vivo, read-out: PB (converted)
[7] = Metabolic stability in mouse liver microsomes; assay type: ADME, Microsome
[8] = system: Liver microsomes; assay: Metabolic stability in human liver microsomes; assay type: ADME, Microsome
[9] = Fractional bioavailability in rat at 10 mg/kg, iv and 10 mg/kg, po; assay type: ADME, organism-based; conditions: in vivo
[10] = Selectivity ratio of Ki for human histamine H4 receptor to Ki for dopamine D2 receptor
[11] = Selectivity ratio of Ki for human histamine H4 receptor to Ki for 5HT2A receptor
[12] = organism: Homo sapiens; assay: Selectivity ratio of Ki for human histamine H4 receptor to Ki for human histamine H3 receptor
[13] = Selectivity ratio of Ki for human histamine H4 receptor to Ki for 5HT1D receptor
[14] = target: Histamine H4 receptor (Rattus norvegicus) (UniProt Q91ZY1); assay: Antagonist activity at rat histamine H4 receptor expressed in HEK293 cells assessed as inhibition of histamine-induced intracellular calcium elevation by FLIPR assay relative to histamine; assay type: functional, cell-based
[15] = Blood clearance in rat at 10 mg/kg, iv; assay type: ADME, organism-based; parameters: dose 10 mg/kg, route intravenous; conditions: whole blood
[16] = system: Liver microsomes; assay: Metabolic stability in rat liver microsomes; assay type: ADME, Microsome
[17] = target: Cytochrome P450 2C9 (Homo sapiens, UniProt P11712); assay: Inhibition of CYP2C9 upto 10 uM; assay type: ADME
Sequence of Cytochrome P450 2C9 (P11712 whole entry): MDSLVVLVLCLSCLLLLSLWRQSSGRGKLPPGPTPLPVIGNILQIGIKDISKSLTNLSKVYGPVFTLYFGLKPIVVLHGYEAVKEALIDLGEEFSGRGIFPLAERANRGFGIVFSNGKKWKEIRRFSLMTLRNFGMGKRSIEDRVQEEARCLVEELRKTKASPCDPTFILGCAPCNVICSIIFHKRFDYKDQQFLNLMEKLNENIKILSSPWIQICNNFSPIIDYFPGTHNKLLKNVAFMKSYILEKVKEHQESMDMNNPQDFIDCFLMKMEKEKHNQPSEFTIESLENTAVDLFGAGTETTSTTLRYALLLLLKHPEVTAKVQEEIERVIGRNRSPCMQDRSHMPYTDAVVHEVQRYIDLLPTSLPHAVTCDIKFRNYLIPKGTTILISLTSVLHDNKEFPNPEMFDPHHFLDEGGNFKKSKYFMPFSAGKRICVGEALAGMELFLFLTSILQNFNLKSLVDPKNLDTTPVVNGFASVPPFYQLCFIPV

[18] = Half life in mouse at 2.5 mg/kg, iv; assay type: ADME, organism-based; parameters: dose 2.5 mg/kg, route intravenous; conditions: in vivo
[19] = target: Cytochrome P450 2D6 (Homo sapiens, UniProt P10635); assay: Inhibition of CYP2D6 upto 10 uM; assay type: ADME
Sequence of Cytochrome P450 2D6 (P10635 whole entry): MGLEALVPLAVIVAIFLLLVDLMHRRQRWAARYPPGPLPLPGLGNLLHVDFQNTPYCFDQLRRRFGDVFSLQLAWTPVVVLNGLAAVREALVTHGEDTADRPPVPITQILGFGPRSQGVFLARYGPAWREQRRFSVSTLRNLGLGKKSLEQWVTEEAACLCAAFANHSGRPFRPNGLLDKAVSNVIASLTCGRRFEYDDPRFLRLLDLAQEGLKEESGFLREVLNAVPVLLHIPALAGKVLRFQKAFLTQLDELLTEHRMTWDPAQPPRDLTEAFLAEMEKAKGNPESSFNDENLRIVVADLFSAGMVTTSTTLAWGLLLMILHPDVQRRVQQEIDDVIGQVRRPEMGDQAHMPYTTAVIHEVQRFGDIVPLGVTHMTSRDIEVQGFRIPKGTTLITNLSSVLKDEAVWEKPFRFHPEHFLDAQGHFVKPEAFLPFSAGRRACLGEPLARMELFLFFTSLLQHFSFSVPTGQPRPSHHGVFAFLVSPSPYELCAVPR

[20] = Selectivity ratio of Ki for human histamine H4 receptor to Ki for 5HT1A receptor
[21] = system: Mus musculus; assay: Antiinflammatory activity against ip dosed BALB/c mouse assessed as inhibition of zymosan-induced peritonitis after 2 hrs pretreated 30 mins before zymosan challenge; assay type: functional
[22] = Selectivity ratio of Ki for human histamine H4 receptor to Ki for histamine H1 receptor
[23] = system: Mus musculus; assay: Inhibition of clobenpropit-induced itching in ip dosed CD1/ICR mouse assessed as blockade of scratching in hind paw for 25 mins pretreated 30 mins before clobenpropit challenge; assay type: functional
[24] = Protein binding in rat; assay type: ADME, organism-based; conditions: in vivo, read-out: PB (converted)
[25] = Selectivity ratio of Ki for human histamine H4 receptor to Ki for histamine H2 receptor
[26] = Selectivity ratio of Ki for human histamine H4 receptor to Ki for adrenergic alpha1 receptor
[27] = Ratio of drug level in brain to plasma in rat at 10 mg/kg, iv after 30 mins; assay type: ADME, organism-based; parameters: dose 10 mg/kg, route intravenous
[28] = system: BMMC; assay: Blockade of histamine-induced morphological changes in BALB/c mouse BMMC by flow cytometry; assay type: functional, cell-based
[29] = system: Rattus norvegicus; assay: Antinociceptive efficacy in ip dosed spinal nerve ligated Sprague-Dawley rat assessed as reduction of neuropathic pain in paw; assay type: functional
[30] = Half life in rat at 10 mg/kg, iv; assay type: ADME, organism-based; parameters: dose 10 mg/kg, route intravenous; conditions: in vivo
[31] = target: Histamine H4 receptor (Mus musculus) (UniProt Q91ZY2); assay: Antagonist activity at mouse histamine H4 receptor expressed in HEK293 cells assessed as inhibition of histamine-induced intracellular calcium elevation by FLIPR assay relative to histamine; assay type: functional, cell-based
[32] = target: T3, Histamine H4 receptor (Mus musculus, UniProt Q91ZY2); assay: Antagonist activity at mouse histamine H4 receptor expressed in HEK293 cells assessed as inhibition of histamine-induced intracellular calcium elevation by FLIPR assay; assay type: functional, cell-based
T3 sequence (Q91ZY2 whole entry): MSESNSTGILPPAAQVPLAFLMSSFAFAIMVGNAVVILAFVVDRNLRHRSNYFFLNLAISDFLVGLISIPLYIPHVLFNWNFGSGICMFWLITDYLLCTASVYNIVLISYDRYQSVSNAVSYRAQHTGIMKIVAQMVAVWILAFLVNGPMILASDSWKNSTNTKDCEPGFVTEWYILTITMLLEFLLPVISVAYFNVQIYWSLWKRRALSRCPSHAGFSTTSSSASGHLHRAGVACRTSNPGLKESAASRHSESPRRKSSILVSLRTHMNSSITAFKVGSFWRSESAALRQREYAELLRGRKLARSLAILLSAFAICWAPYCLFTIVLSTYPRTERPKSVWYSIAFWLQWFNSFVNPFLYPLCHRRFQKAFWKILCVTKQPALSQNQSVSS

[33] = target: T2, Histamine H4 receptor; assay: Displacement of [3H]histamine from rat histamine H4 receptor expressed in HEK293 cells; assay type: cell-based
[34] = target: T1, Histamine H4 receptor; assay: Displacement of [3H]histamine from human histamine H4 receptor expressed in HEK293 cells; assay type: cell-based; conditions: read-out: Ki

| Structure (SMILES) | pKb [1] | pKb [2] | EC50 [3] [nM] | Vd [4] [L/kg] | Activity [5] | fraction unbound [6] | Stability [7] [pmol/min/mg] | Stability [8] [pmol/min/mg] | bioavailability [9] [%] | Ratio Ki [10] | Ratio Ki [11] | Ratio Ki [12] | Ratio Ki [13] | clearance [15] [mL/min/kg] | Stability [16] [pmol/min/mg] | Activity [17] | Activity [19] | Ratio Ki [20] | fraction unbound [24] | Activity [28] | other results |
| --- | --- | --- | --- | --- | --- | --- | --- | --- | --- | --- | --- | --- | --- | --- | --- | --- | --- | --- | --- | --- | --- |
| CN[C@@H]1CCN(c2nc(N)nc3c2CCc2ccccc2-3)C1 | 8.29 | 7.66 |  |  |  |  |  |  |  |  |  |  |  |  |  |  |  |  |  |  |  |
| CN[C@@H]1CCN(c2nc(N)nc3c2Cc2ccccc2-3)C1 | 8.5 |  | 19.1 |  |  |  |  |  |  |  |  |  |  |  |  |  |  |  |  |  |  |
| CN1CCN(c2cc(-c3ccc(C#N)cc3)nc(N)n2)CC1 |  |  |  | 7.1 | Not Active | 0.65 | 43.1 | 25.9 | 31 | > 140 | 120 | 30 | 3.5 | 172 | 94.5 | Not Active | Not Active | 1.2 | 0.62 | Active | Efficacy [14]: 64%; half-life [18]: 12 min; ED50 [21]: 66 µmol/kg; Ratio Ki [22]: > 170; ED50 [23]: 25 µmol/kg; Ratio Ki [25]: > 260; Ratio Ki [26]: 330; Kp at 0.5 h [27]: 20; ED50 [29]: 115 µmol/kg; half-life [30]: 24 min |
| N#Cc1ccc(-c2cc(N3CCNCC3)nc(N)n2)cc1 | 8.08 |  |  |  | Not Active | 0.93 | 23.2 | 6.2 |  |  |  |  |  |  | 26.9 | Not Active | Not Active |  | 0.96 |  | Efficacy [31]: 54% |

Further lines, with some results ahead:

| pKb [1] | pKb [2] | EC50 [3] [nM] | Vd [4] [L/kg] | Activity [5] | fraction unbound [6] | Stability [7] [pmol/min/mg] | Stability [8] [pmol/min/mg] | bioavailability [9] [%] | Ratio Ki [10] | Ratio Ki [11] | Ratio Ki [12] | Ratio Ki [13] | clearance [15] [mL/min/kg] | Stability [16] [pmol/min/mg] | Activity [17] | Activity [19] | Ratio Ki [20] | fraction unbound [24] | Structure (SMILES) | Activity [28] | other results |
| --- | --- | --- | --- | --- | --- | --- | --- | --- | --- | --- | --- | --- | --- | --- | --- | --- | --- | --- | --- | --- | --- |
| 7.24 |  | 55 | 22 | Not Active | 0.41 | 10.9 | 28.5 | 31 | 480 | 2.2 | 56 | 81 | 80 | 108 | Not Active | Not Active | 11 | 0.24 | Nc1nc2c(c(N3CCNCC3)n1)CCCCC2c1ccccc1 (configuration not stated) | Active | EC50 [32]: 45.7 nM; Ki [33]: 4.47 nM; ED50 [21]: 79 µmol/kg; Ratio Ki [22]: > 160; ED50 [23]: 10 µmol/kg; Ratio Ki [25]: > 230; Ratio Ki [26]: 125; Ki [34]: 39.8 nM; half-life [30]: 192 min |
| 8.15 | 7.5 |  |  |  |  |  |  |  |  |  |  |  |  |  |  |  |  |  | CN[C@@H]1CCN(c2nc(N)nc3c2CCCCc2ccccc2-3)C1 | inactive |  |
